Bounds are passed on as bounds.

One experiment deals with Mus musculus. Nature of the experiment: Analgesic activity in ip dosed albino Swiss mouse assessed as nociceptive response measured after 60 mins by hot plate method. It counts as functional. As to conditions: 1 h. (In general: In hot-plate and tail-flick tests a longer latency is read as antinociception.)
The next experiment has as its system Rattus norvegicus. As to the kind of experiment: Antiinflammatory activity in ip dosed rat carrageenan-induced foot paw edema model measured after 2 hrs by plethysmometric analysis. It counts as functional.
Experiment [1] concerns the target T1, Prostaglandin G/H synthase 1 (Ovis aries, UniProt P05979).
T1 sequence (P05979 whole entry): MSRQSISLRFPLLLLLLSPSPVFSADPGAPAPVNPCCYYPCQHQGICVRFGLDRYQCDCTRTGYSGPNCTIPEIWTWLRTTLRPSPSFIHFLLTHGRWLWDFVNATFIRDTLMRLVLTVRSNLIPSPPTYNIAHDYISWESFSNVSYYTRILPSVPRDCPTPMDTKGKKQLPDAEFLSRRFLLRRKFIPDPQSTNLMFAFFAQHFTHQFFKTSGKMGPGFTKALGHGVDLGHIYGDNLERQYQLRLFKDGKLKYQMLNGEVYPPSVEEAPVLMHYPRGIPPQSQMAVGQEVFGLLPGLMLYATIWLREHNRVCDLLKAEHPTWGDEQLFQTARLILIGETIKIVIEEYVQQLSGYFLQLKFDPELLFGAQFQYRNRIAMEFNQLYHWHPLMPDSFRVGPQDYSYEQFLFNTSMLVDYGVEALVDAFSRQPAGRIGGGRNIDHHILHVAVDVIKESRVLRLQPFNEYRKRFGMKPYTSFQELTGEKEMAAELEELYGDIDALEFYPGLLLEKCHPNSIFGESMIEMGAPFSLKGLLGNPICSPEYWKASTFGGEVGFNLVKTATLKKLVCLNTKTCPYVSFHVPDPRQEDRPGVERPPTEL
Nature of the experiment: Inhibition of ovine COX1 using arachidonic acid as substrate preincubated for 5 mins followed by substrate addition by ELISA.

For the molecule `O=C(CSc1nc2ccccc2c(=O)n1CCc1ccccn1)N/N=C/c1ccc(Cl)cc1`, the ED50 (usually the dose that gives a 50% effect, or the effect in half of the subjects) in the experiment with Mus musculus amounted to 33.7 mg/kg; in the experiment with Rattus norvegicus, 66.6 mg/kg.

Consider `O=C(CSc1nc2ccccc2c(=O)n1CCc1ccccn1)c1ccccc1`, for which the ED50 with Rattus norvegicus was above 200 mg/kg.

Take `O=C(CSc1nc2ccccc2c(=O)n1CCc1ccccn1)c1ccc(F)cc1`: the results for the ED50 in the experiment with Mus musculus and with Rattus norvegicus were 78.1 mg/kg and 91.2 mg/kg, respectively. Besides, the IC50 – broadly, the concentration at which inhibition is half-maximal – in experiment [1] is above 100 µM.

In the case of `COc1ccc(/C=N/NC(=O)CSc2nc3ccccc3c(=O)n2CCc2ccccn2)cc1`, the ED50 in the experiment on Mus musculus came to 50.3 mg/kg; in the experiment with Rattus norvegicus, 67.5 mg/kg.

`COc1cc(/C=N/NC(=O)CSc2nc3ccccc3c(=O)n2CCc2ccccn2)cc(OC)c1OC`: the ED50 in the experiment with Rattus norvegicus is above 200 mg/kg.

As to `CCOC(=O)CSc1nc2ccccc2c(=O)n1CCc1ccccn1`, in the experiment on Rattus norvegicus, the ED50 is above 200 mg/kg.

Take `NC(=O)CSc1nc2ccccc2c(=O)n1CCc1ccccn1`: the ED50 with Rattus norvegicus was above 200 mg/kg.

As for `COc1cc(NC(=O)CSc2nc3ccccc3c(=O)n2CCc2ccccn2)cc(OC)c1OC`, the ED50 with Mus musculus stood at 60.3 mg/kg; with Rattus norvegicus it was 65.3 mg/kg. Further, in experiment [1], the IC50 was above 100 µM.

On to `COc1ccc(NC(=O)CSc2nc3ccccc3c(=O)n2CCc2ccccn2)cc1`, for which the median effective dose (ED50) with Mus musculus is 111 mg/kg; with Rattus norvegicus, 81.5 mg/kg. The IC50 in experiment [1] is above 100 µM.

For `COc1cc(NC(=O)CCSc2nc3ccccc3c(=O)n2CCc2ccccn2)cc(OC)c1OC`, the figures for the ED50 in the experiment on Mus musculus and with Rattus norvegicus were 80.3 mg/kg and 74.2 mg/kg, respectively. For the same molecule, the IC50 in experiment [1] is above 100 µM.

Molecule `COc1ccc(S(=O)(=O)NNC(=O)CSc2nc3ccccc3c(=O)n2CCc2ccccn2)cc1OC` displayed an ED50 with Rattus norvegicus above 200 mg/kg.

With `O=C(CSc1nc2ccccc2c(=O)n1CCc1ccccn1)NCc1ccccc1`, the ED50 with Rattus norvegicus was above 200 mg/kg.

In the experiment on Rattus norvegicus, `O=C(CSc1nc2ccccc2c(=O)n1CCc1ccccn1)NNS(=O)(=O)c1ccc(Br)cc1` returned a 50% effective dose (ED50) above 200 mg/kg.

Consider `O=C(CSc1nc2ccccc2c(=O)n1CCc1ccccn1)NNS(=O)(=O)c1ccccc1`, for which the ED50 in the experiment with Rattus norvegicus is above 200 mg/kg.

On to `O=C(CSc1nc2ccccc2c(=O)n1CCc1ccccn1)N/N=C/c1ccccc1`, for which the ED50 in the experiment with Mus musculus came out at 54.5 mg/kg; in the experiment on Rattus norvegicus it was 104 mg/kg.

In the case of `O=c1c2ccccc2nc(S)n1CCc1ccccn1`, the ED50 with Mus musculus was determined as 98.2 mg/kg; with Rattus norvegicus, 102 mg/kg. In experiment [1], the IC50 is above 100 µM.

For `O=C(CSc1nc2ccccc2c(=O)n1CCc1ccccn1)Nc1ccccc1`, in the experiment on Rattus norvegicus, the ED50 was above 200 mg/kg.

In the case of `NNC(=O)CSc1nc2ccccc2c(=O)n1CCc1ccccn1`, the ED50 was 40.3 mg/kg in the experiment with Mus musculus and 74.5 mg/kg in the experiment on Rattus norvegicus. For the same molecule, in experiment [1], the IC50 is above 100 µM.

Regarding `COc1ccc(/C=N/NC(=O)CSc2nc3ccccc3c(=O)n2CCc2ccccn2)cc1OC`, the ED50 is 78.5 mg/kg with Mus musculus and 112 mg/kg in the experiment on Rattus norvegicus.

Regarding `O=C(O)Cc1ccccc1Nc1c(Cl)cccc1Cl` [DICLOFENAC], the ED50 with Mus musculus was found to be 100 mg/kg; with Rattus norvegicus, 112 mg/kg.

For the molecule `Cc1ccc(-c2cc(C(F)(F)F)nn2-c2ccc(S(N)(=O)=O)cc2)cc1` [CELECOXIB], the ED50 in the experiment with Mus musculus was found to be 71 mg/kg.

In the case of `COc1ccc(C(=O)CSc2nc3ccccc3c(=O)n2CCc2ccccn2)cc1`, the ED50 in the experiment on Rattus norvegicus is above 200 mg/kg.

`O=C(CSc1nc2ccccc2c(=O)n1CCc1ccccn1)Nc1ccc(F)cc1`: the ED50 in the experiment with Mus musculus turned out to be 12.3 mg/kg; in the experiment with Rattus norvegicus, 50.3 mg/kg. In addition, the IC50 in experiment [1] is above 100 µM.

Values taken from ChEMBL document CHEMBL3813645, “Design, synthesis of 2,3-disubstitued 4(3H)-quinazolinone derivatives as anti-inflammatory and analgesic agents: COX-1/2 inhibitory activities and molecular docking studies” (Bioorg Med Chem, 2016).
